Results taken from PMC11009412, “Pathogenic mutations of human phosphorylation sites affect protein–protein interactions” (Nature Communications, 2024).
Where “and” joins values, the source holds several entries; their conditions need not be identical. Equal values may be shown once. Non-standard residues stand in square brackets, D forms with d. Residues, ends and D or L forms follow the SMILES beside them. pS = N[C@@H](COP(=O)(O)O)C(=O)O

Tests used:
14-3-3 epsilon (YWHAE) = target: T1, 14-3-3 epsilon (YWHAE) (Homo sapiens, UniProt P62258); experiment: Isothermal titration calorimetry (ITC) of GATAD1 peptides with 14-3-3ε; format: binding; details: 18 °C, 400 µM peptide in syringe, 25 µM 14-3-3ε in chamber, 20 mM HEPES pH 7.0, 150 mM NaCl, 2 mM DTT
T1 construct: residues 1 and 236-255 are disordered and therefore not visible in the electron density; GST (N, cleaved yes); made in house; host or cells: Escherichia coli C41 (DE3)
T1 sequence (P62258 1-255): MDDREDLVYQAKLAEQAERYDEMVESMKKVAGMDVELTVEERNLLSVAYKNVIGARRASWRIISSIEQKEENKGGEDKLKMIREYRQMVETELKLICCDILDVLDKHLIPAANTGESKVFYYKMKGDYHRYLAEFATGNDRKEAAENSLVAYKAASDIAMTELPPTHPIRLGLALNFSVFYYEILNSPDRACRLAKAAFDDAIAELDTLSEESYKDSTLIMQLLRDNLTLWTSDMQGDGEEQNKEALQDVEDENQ
Procedure: The 14-3-3ε (YWHAE) cDNA was purchased from Twist Bioscience in the pTwist Chlor High Copy vector and cloned into the pGEX6P1 plasmid (GE Healthcare) for recombinant expression as a GST-fusion protein followed by a Prescission protease cleavage site. The plasmid was freshly transformed into Escherichia coli C41 (DE3) cells. Cultures were grown in terrific broth supplemented with ampicillin (100 μg/ml) at 37 °C and 80 rpm until an optical density at 600 nm of 0.7 was reached. […] Cells were harvested by centrifugation at 4000 g and frozen at −20 °C.
Following resuspension in lysis buffer (50 mM HEPES/NaOH pH 7.5, 500 mM NaCl and 3 mM Dithiothreitol (DTT)) supplemented with 1 mg deoxyribonuclease I (DNaseI, Roche) and protease inhibitor 4-(2-Aminoethyl) benzenesulfonyl fluoride hydrochloride S7(AEBSF), cells were disrupted using a microfluidizer (Microfluidics). The cell extract was centrifuged at 55,000 g for 45 min at 4 °C to remove insoluble parts. The cleared supernatant was applied onto a prepacked Glutathione Sepharose 4B column (Cytiva) equilibrated in the lysis buffer. The column was extensively washed with lysis buffer. To cleave off the GST tag, 1 mg PreScission protease was diluted in 5 ml OCC buffer (50 mM HEPES/NaOH pH 7.5, 150 mM NaCl, and 3 mM DTT), applied to the column material, and incubated overnight at 4 °C. Cleaved 14-3-3ε protein was eluted from the column using OCC buffer, concentrated and loaded onto an 16/60 S200 column (Cytiva) equilibrated in SEC buffer (20 mM HEPES/NaOH pH 7.5, 150 mM NaCl and 2 mM DTT). Pure and homogenous 14-3-3ε was concentrated to 13 mg/ml, flash-frozen in liquid nitrogen, and stored at −80 °C until further use.
GATAD1 peptides used in these experiments were obtained from JPT peptide technologies with an N-terminus in amine and a C-terminus in amide form with 95% purity. ITC experiments were performed using a PEAQ-ITC microcalorimeter (Malvern). All titrations were performed at 18 °C with 400 µM peptide in the syringe and 25 µM 14-3-3ε in the reaction chamber. The protein and the titration components were dissolved in a buffer containing 20 mM HEPES pH 7.0, 150 mM NaCl, and 2 mM DTT. Malvern software was used for data visualization and fitting. The raw ITC results can be found in Supplementary Fig. 42.

14-3-3 family proteins = experiment: PRISMA peptide pull-down screen, 14-3-3 binding to GATAD1 peptides; parameters: species or system human; details: LFQ volcano plot and SILAC scatter plot; HEK-293 lysate, triplicates
Description: (§1) A total of 117 peptides, consisting of 15 amino acids each, were synthesized in situ on a cellulose membrane using SPOT synthesis techniques[25] provided by JPT Peptide Technologies in Berlin, Germany. Among these peptides, 39 were wild-type non-phosphorylated, 39 were mutated, and 39 were phosphorylated. Whenever possible, the mutation site was positioned at position 7, which is in the center of the immobilized peptides, with their C-termini serving as the point of immobilization.
(§2) For the experimental procedure, three membranes were initially incubated with the lysis buffer (HEPES (50 mM, pH 7.9), NaCl (150 mM), EGTA (1 mM), MgCl2 (1 mM), glycerol (20%), NP-40 (1%), SDS (0.1%), and sodium deoxycholate (0.5%)). The membranes were incubated with the lysis buffer until completely moistened. […]
(§3) HEK-293 cells were lysed with the lysis buffer and the protein concentration was measured using DC protein assay (Bio-Rad). […]
(§4) During the analysis, peptides were eluted from the analytical column at a flow rate of 500 nl/min, employing a gradient as follows: 5 to 10% B over 5 min, 10 to 40% B over 60 min, 40 to 99% B over 5 min, and maintaining 99% B for 5 min. The samples were measured in the orbitrap fusion mass spectrometer using the following methods: a full scan was performed with a resolution of 120,000 over an m/z range of 300–1500. […]

[1] = test system: 14-3-3 proteins (beta/alpha, gamma, epsilon, zeta, eta and theta); experiment: Alanine scanning PRISMA pull-down, 14-3-3 proteins; format: binding, human; details: PRISMA pull-down from HEK-293T lysate, LFQ, triplicates
Description: In this experiment, each amino acid from the −5 to +5 positions surrounding the phosphorylated residue was mutated to alanine, except for original alanine residues which were mutated to glycine. The experiment also included the wild-type phosphorylated, wild-type non-phosphorylated, disease-associated mutant, and aspartic acid mutant peptides. These 15 peptides were synthesized on a cellulose membrane in triplicates (n = 3 biological replicates) to facilitate the pull-down of proteins from HEK-293T cell lysate. The synthesis of peptides, pull-downs, and sample preparation for mass spectrometry followed the procedures described earlier for the PRISMA screen. Subsequently, samples were eluted from StageTips using a solution containing 50% acetonitrile and 0.1% formic acid, dried, and resuspended in a solution containing 3% acetonitrile and 0.1% formic acid. […]
The acquired mass spectra were subjected to further analysis using MaxQuant (version 1.6.3.4). […] The LFQ values of significant proteins were z-scored by row and hierarchical clustering was performed (Fig. 6A and Supplementary Data 5). To better visualize the 14-3-3 proteins, their LFQ values were extracted from the whole table and were z scored and clustered individually (Fig. 5C).

GRB2 = experiment: PRISMA peptide pull-down screen, GRB2 binding to the EGFR control peptide; parameters: species or system human; details: PRISMA pull-down from SILAC-labelled HEK-293 lysate; in all three replicates
Description: as §1, §2, §3, §4

**Q.** With `CC(C)C[C@H](N)C(=O)N[C@@H](CCCNC(=N)N)C(=O)N[C@@H](CC(N)=O)C(=O)N[C@H](C(=O)N[C@@H](CCCCN)C(=O)N[C@@H](Cc1ccc(O)cc1)C(=O)N[C@@H](CCCCN)C(=O)N[C@@H](COP(=O)(O)O)C(=O)N[C@@H](C)C(=O)N1CCC[C@H]1C(=O)N[C@@H](C)C(=O)N[C@@H](C)C(=O)N[C@@H](CCC(=O)O)C(=O)N[C@@H](CCCCN)C(=O)N[C@@H](CCCCN)C(N)=O)[C@@H](C)O` [GATAD1_phos] (H-LRNTKYK[pS]APAAEKK-NH2) as the compound, how does the “N (stoichiometry) by ITC” value (14-3-3 epsilon (YWHAE)) read?
**A.** Its value is 1.42 ± 0.04.

**Q.** What about the Kd (14-3-3 epsilon (YWHAE); PEAQ-ITC, peptides N-terminal amine, C-terminal amide, read-out: Kd (binding constant) by ITC) of the same compound?
**A.** Its Kd is ~3 µM and 3.4 µM.

**Q.** And the “Specific and differential binding of 14-3-3 proteins in PRISMA (in words)” value (14-3-3 family proteins)?
**A.** Its value is “specifically interacts with the multiple 14-3-3 protein family members”.

**Q.** How did the “Interaction with 14-3-3ε by ITC (in words)” value (14-3-3 epsilon (YWHAE)) turn out when “LRNTKYKDAPAAEKK [S102D, phosphomimetic S102D mutant GATAD1 peptide]” was run?
**A.** The value was “do not interact”.

**Q.** And the “14-3-3 proteins pulled down in alanine scanning (in words)” value [1]?
**A.** Its value is “did not interact”.

**Q.** What does the source list for “TFLPVPEpYINQSVPK [EGFR_phos, positive control, well-characterized EGFR-derived phosphopeptide]”?
**A.** SILAC ratio phos/mut of GRB2 (GRB2): > 20; SILAC ratio phos/wt of GRB2 (GRB2): > 20
